Values joined by “and” are separate entries in the source; they are usually repeats but may differ in a detail not shown here. Equal entries are not always repeated. Where two headings read alike, the source gives them in different places.
Experiments:
A. baumannii ATCC 19606 = assay: Antibacterial MIC, double-dilution method; format: cell-based; conditions: Acinetobacter baumannii, ATCC19606, strain E, Gram-negative, read-out: MIC
Experimental: (§1) MIC values were determined against a variety of Gram-positive (strains A-D) and Gram-negative (E-J) bacterial and mycobacterial (K) strains using the double-dilution method, as previously published. Preliminary screening was performed using 500 μM of each compound.

B. subtilis 168 = assay: Antibacterial MIC, double-dilution method; format: cell-based; conditions: Bacillus subtilis, strain A, Gram-positive
Experimental: as §1

E. cloacae ATCC 13047 = assay: Antibacterial MIC, double-dilution method; format: cell-based; conditions: Enterobacter cloacae, ATCC13047, strain F, Gram-negative, read-out: MIC
Experimental: as §1

E. coli MC1061 = assay: Antibacterial MIC, double-dilution method; format: cell-based; conditions: Escherichia coli
Experimental: as §1

K. pneumoniae ATCC 27736 = assay: Antibacterial MIC, double-dilution method; format: cell-based; conditions: Klebsiella pneumoniae, ATCC27736, strain H, Gram-negative, read-out: MIC
Experimental: as §1

[1] = system: L. monocytogenes ATCC 19115; assay: Antibacterial MIC, double-dilution method; format: cell-based; conditions: Listeria monocytogenes, ATCC19115, strain B, Gram-positive, read-out: MIC
Experimental: as §1

M. smegmatis MC2-155 = assay: Antibacterial MIC, double-dilution method; format: cell-based; conditions: Mycolicibacterium smegmatis, MC2155, strain K, mycobacterial, read-out: MIC
Experimental: as §1

MRSA = assay: Antibacterial MIC, double-dilution method; format: cell-based; conditions: Staphylococcus aureus, strain C, Gram-positive, read-out: MIC
Experimental: as §1

P. aeruginosa ATCC 27853 = assay: Antibacterial MIC, double-dilution method; format: cell-based; conditions: Pseudomonas aeruginosa, ATCC27853, strain I, Gram-negative, read-out: MIC
Experimental: as §1

S. enterica ATCC 14028 = assay: Antibacterial MIC, double-dilution method; format: cell-based; conditions: Salmonella enterica, ATCC14028, strain J, Gram-negative, read-out: MIC
Experimental: as §1

VRE = assay: Antibacterial MIC, double-dilution method; format: cell-based; conditions: Enterococcus, strain D, Gram-positive, read-out: MIC
Experimental: as §1

C. albicans ATCC 1003 = assay: Antifungal MIC, CLSI M27-A3 microbroth dilution; format: cell-based, Candida albicans; conditions: Candida albicans, ATCC1003, read-out: MIC
Experimental: (§2) In vitro MIC testing was performed according to the CLSI M27-A3 standard microbroth dilution methodology for the susceptibility testing of yeasts with minor modifications.

C. albicans ATCC 10231 = assay: Antifungal MIC, CLSI M27-A3 microbroth dilution; format: cell-based, Candida albicans; conditions: Candida albicans, ATCC10231, C. albicans ATCC 10231, resistant to FLC, ITC, and VOR, read-out: MIC
Experimental: as §2

C. albicans ATCC 1237 = assay: Antifungal MIC, CLSI M27-A3 microbroth dilution; format: cell-based, Candida albicans; conditions: Candida albicans, ATCC1237, C. albicans ATCC 1237, resistant to FLC, ITC, and VOR, read-out: MIC
Experimental: as §2

C. albicans ATCC 2310 = assay: Antifungal MIC, CLSI M27-A3 microbroth dilution; format: cell-based, Candida albicans; conditions: Candida albicans, ATCC2310, C. albicans ATCC 2310, susceptible to FLC, ITC, and VOR, read-out: MIC
Experimental: as §2

C. albicans ATCC 2876 = assay: Antifungal MIC, CLSI M27-A3 microbroth dilution; format: cell-based, Candida albicans; conditions: Candida albicans, ATCC2876, C. albicans ATCC 2876, susceptible to FLC, ITC, and VOR, read-out: MIC
Experimental: as §2

C. albicans ATCC 64124 = assay: Antifungal MIC, CLSI M27-A3 microbroth dilution; format: cell-based, Candida albicans; conditions: Candida albicans, ATCC64124, C. albicans ATCC 64124, resistant to FLC, ITC, and VOR, read-out: MIC
Experimental: as §2

C. albicans ATCC 90819 = assay: Antifungal MIC, CLSI M27-A3 microbroth dilution; format: cell-based, Candida albicans; conditions: Candida albicans, ATCC90819, C. albicans ATCC 90819, resistant to FLC, ITC, and VOR, read-out: MIC
Experimental: as §2

[2] = system: C. albicans strains (panel of seven); assay: Antifungal MIC, summary over the panel; format: cell-based, Candida albicans
Experimental: In vitro MIC testing was performed according to the CLSI M27-A3 standard microbroth dilution methodology for the susceptibility testing of yeasts with minor modifications. […] MIC values were read visually for all tested compounds, and the endpoint was determined as the minimum concentration of compound that yielded complete inhibition relative to growth control.

[3] = strain G, Gram-negative, converted from μM, read-out: MIC
[4] = strain G, Gram-negative, range 0.5 to 500 μM, read-out: MIC
[5] = C. albicans ATCC 1003, converted from μg/mL

## C/C(=N\NC(=N)N)c1ccc(Cc2ccc(/C(C)=N/NC(=N)N)cc2)cc1.Cl.Cl [Compound 4C, (2E,2′E)-2,2′-((methylenebis(4,1-phenylene))bis(ethan-1-yl-1-ylidene))bis(hydrazine-1-carboximidamide) dihydrochloride]
A. baumannii ATCC 19606; converted from μM
  MIC: > 219 µg/mL
A. baumannii ATCC 19606; range 0.5 to 500 μM
  MIC: > 500 µM
B. subtilis 168; converted from μM
  MIC: > 219 µg/mL
B. subtilis 168; range 0.5 to 500 μM
  MIC: > 500 µM
E. cloacae ATCC 13047; converted from μM
  MIC: > 219 µg/mL
E. cloacae ATCC 13047; range 0.5 to 500 μM
  MIC: > 500 µM
E. coli MC1061; [3]
  MIC: > 219 µg/mL
E. coli MC1061; [4]
  MIC: > 500 µM
K. pneumoniae ATCC 27736; converted from μM
  MIC: > 219 µg/mL
K. pneumoniae ATCC 27736; range 0.5 to 500 μM
  MIC: > 500 µM
[1]; converted from μM
  MIC: 1.7 µg/mL
[1]; range 0.5 to 500 μM
  MIC: 3.9 µM
M. smegmatis MC2-155; converted from μM
  MIC: 0.9 µg/mL
M. smegmatis MC2-155; range 0.5 to 500 μM
  MIC: 2 µM
MRSA; converted from μM
  MIC: 1.7 µg/mL
MRSA; range 0.5 to 500 μM
  MIC: 3.9 µM
P. aeruginosa ATCC 27853; converted from μM
  MIC: > 219 µg/mL
P. aeruginosa ATCC 27853; range 0.5 to 500 μM
  MIC: > 500 µM
S. enterica ATCC 14028; converted from μM
  MIC: > 219 µg/mL
S. enterica ATCC 14028; range 0.5 to 500 μM
  MIC: > 500 µM
VRE; converted from μM
  MIC: 0.9 µg/mL
VRE; range 0.5 to 500 μM
  MIC: 2 µM
C. albicans ATCC 1003; [5]
  MIC: 17.8 µM
C. albicans ATCC 1003
  MIC: 7.8 µg/mL
C. albicans ATCC 10231; converted from μg/mL
  MIC: 17.8 µM
C. albicans ATCC 10231
  MIC: 7.8 µg/mL
C. albicans ATCC 1237; converted from μg/mL
  MIC: 17.8 µM
C. albicans ATCC 1237
  MIC: 7.8 µg/mL
C. albicans ATCC 2310; converted from μg/mL
  MIC: 17.8 µM
C. albicans ATCC 2310
  MIC: 7.8 µg/mL
C. albicans ATCC 2876; converted from μg/mL
  MIC: 8.9 µM
C. albicans ATCC 2876
  MIC: 3.9 µg/mL
C. albicans ATCC 64124; converted from μg/mL
  MIC: 17.8 µM
C. albicans ATCC 64124
  MIC: 7.8 µg/mL
C. albicans ATCC 90819; converted from μg/mL
  MIC: 17.8 µM
C. albicans ATCC 90819
  MIC: 7.8 µg/mL
other
  melting point: 342 to 344 °C

## Cl.N=C(N)N/N=C/c1ccc(-c2ccc(/C=N/Nc3ccccc3Br)cc2)cc1 [Compound 7Ab, (E)-2-((4′-((E and Z)-(2-(2-Bromophenyl)hydrazono)methyl)-[1,1′-biphenyl]-4-yl)methylene)hydrazine-1-carboximidamide monohydrochloride]
A. baumannii ATCC 19606; converted from μM
  MIC: > 235 µg/mL
A. baumannii ATCC 19606; range 0.5 to 500 μM
  MIC: > 500 µM
B. subtilis 168; converted from μM
  MIC: > 235 µg/mL
B. subtilis 168; range 0.5 to 500 μM
  MIC: > 500 µM
E. cloacae ATCC 13047; converted from μM
  MIC: > 235 µg/mL
E. cloacae ATCC 13047; range 0.5 to 500 μM
  MIC: > 500 µM
E. coli MC1061; [3]
  MIC: > 235 µg/mL
E. coli MC1061; [4]
  MIC: > 500 µM
K. pneumoniae ATCC 27736; converted from μM
  MIC: > 235 µg/mL
K. pneumoniae ATCC 27736; range 0.5 to 500 μM
  MIC: > 500 µM
[1]; converted from μM
  MIC: 0.9 µg/mL
[1]; range 0.5 to 500 μM
  MIC: 2 µM
M. smegmatis MC2-155; converted from μM
  MIC: 1.8 µg/mL
M. smegmatis MC2-155; range 0.5 to 500 μM
  MIC: 3.9 µM
MRSA; converted from μM
  MIC: 0.9 µg/mL
MRSA; range 0.5 to 500 μM
  MIC: 2 µM
P. aeruginosa ATCC 27853; converted from μM
  MIC: > 235 µg/mL
P. aeruginosa ATCC 27853; range 0.5 to 500 μM
  MIC: > 500 µM
S. enterica ATCC 14028; converted from μM
  MIC: > 235 µg/mL
S. enterica ATCC 14028; range 0.5 to 500 μM
  MIC: > 500 µM
VRE; converted from μM
  MIC: 0.9 µg/mL
VRE; range 0.5 to 500 μM
  MIC: 2 µM
C. albicans ATCC 1003; [5]
  MIC: 4.1 µM
C. albicans ATCC 1003
  MIC: 2 µg/mL
C. albicans ATCC 10231; converted from μg/mL
  MIC: 4.1 µM
C. albicans ATCC 10231
  MIC: 2 µg/mL
C. albicans ATCC 1237; converted from μg/mL
  MIC: 8.3 µM
C. albicans ATCC 1237
  MIC: 3.9 µg/mL
C. albicans ATCC 2310; converted from μg/mL
  MIC: 8.3 µM
C. albicans ATCC 2310
  MIC: 3.9 µg/mL
C. albicans ATCC 2876; converted from μg/mL
  MIC: 8.3 µM
C. albicans ATCC 2876
  MIC: 3.9 µg/mL
C. albicans ATCC 64124; converted from μg/mL
  MIC: 8.3 µM
C. albicans ATCC 64124
  MIC: 3.9 µg/mL
C. albicans ATCC 90819; converted from μg/mL
  MIC: 8.3 µM
C. albicans ATCC 90819
  MIC: 3.9 µg/mL
[2]; against all fungal strains tested
  antifungal activity in words: excellent antifungal activities
other
  melting point: > 380 °C

## C/C(=N\NC(=N)N)c1ccc(-c2ccc(/C(C)=N/Nc3ccccc3Cl)cc2)cc1.Cl [Compound 8Aa, (E)-2-(1-(4′-((E)-1-(2-(2-chlorophenyl)hydrazono)ethyl)-[1,1′-biphenyl]-4-yl)ethylidene)hydrazine-1-carboximidamide hydrochloride]
A. baumannii ATCC 19606; converted from μM
  MIC: 26.6 µg/mL
A. baumannii ATCC 19606; range 0.5 to 500 μM
  MIC: 62.5 µM
B. subtilis 168; converted from μM
  MIC: 26.6 to 53.3 µg/mL
B. subtilis 168; range 0.5 to 500 μM
  MIC: 62.5 to 125 µM
E. coli MC1061
  MIC: 213 µg/mL and 500 µM
K. pneumoniae ATCC 27736; converted from μM
  MIC: 26.6 to 53.3 µg/mL
K. pneumoniae ATCC 27736; range 0.5 to 500 μM
  MIC: 62.5 to 125 µM
[1]; converted from μM
  MIC: 26.6 to 53.3 µg/mL
[1]; range 0.5 to 500 μM
  MIC: 62.5 to 125 µM
MRSA; converted from μM
  MIC: 53.3 µg/mL
MRSA; range 0.5 to 500 μM
  MIC: 125 µM
S. enterica ATCC 14028; converted from μM
  MIC: 26.3 to 53.3 µg/mL
S. enterica ATCC 14028; range 0.5 to 500 μM
  MIC: 62.5 to 125 µM
VRE; converted from μM
  MIC: 1.7 µg/mL
VRE; range 0.5 to 500 μM
  MIC: 3.9 µM
C. albicans ATCC 1003; [5]
  MIC: 34.3 µM
C. albicans ATCC 1003
  MIC: 15.6 µg/mL
C. albicans ATCC 10231; converted from μg/mL
  MIC: 34.3 µM
C. albicans ATCC 10231
  MIC: 15.6 µg/mL
C. albicans ATCC 1237; converted from μg/mL
  MIC: 34.3 µM
C. albicans ATCC 1237
  MIC: 15.6 µg/mL
C. albicans ATCC 2310; converted from μg/mL
  MIC: 34.3 µM
C. albicans ATCC 2310
  MIC: 15.6 µg/mL
C. albicans ATCC 2876; converted from μg/mL
  MIC: 34.3 µM
C. albicans ATCC 2876
  MIC: 15.6 µg/mL
C. albicans ATCC 64124; converted from μg/mL
  MIC: 68.7 µM
C. albicans ATCC 64124
  MIC: 31.3 µg/mL
C. albicans ATCC 90819; converted from μg/mL
  MIC: 34.3 µM
C. albicans ATCC 90819
  MIC: 15.6 µg/mL
[2]; Candida albicans, all, most or majority of the fungal strains, read-out: MIC, span over C. albicans strains
  MIC: 7.8 to 15.6 µg/mL
other
  melting point: > 380 °C

Reference: patent publication US10173968B2, “Bishydrazone-based antifungal agents” (University of Kentucky Research Foundation, priority 2016, dated 2019)
